Here are results for 2 molecules from ChEMBL document CHEMBL1130902, “Novel angucycline compound with both antigastrin- and gastric mucosal protective-activities” (1998).

The inhibition in vivo is the relative decrease from the control value, in per cent.

Holding throughout (type): functional
The subject of assay [1] is Rattus norvegicus. The experiment in a line: Percentage dose required to prevent lesion formation in gastric mucosa of unanesthetized rats upon intraperitoneal administration of 1 mg/kg dose in the HCl/ethanol-induced lesion model. The conditions noted are these: ip.
Assay [2] has as its system Rattus norvegicus. Put plainly: Percentage dose required to prevent lesion formation in gastric mucosa of unanesthetized rats upon intraperitoneal administration of 10 mg/kg dose in the HCl/ethanol-induced lesion model. The conditions noted are these: ip.
Assay [3] has as its system Rattus norvegicus. The experiment in a line: Percentage dose required to prevent lesion formation in gastric mucosa of unanesthetized rats upon intraperitoneal administration of 3 mg/kg dose in the HCl/ethanol-induced lesion model. Conditions: ip.
Assay [4] concerns Rattus norvegicus. Put plainly: Percent inhibition against pentagastrin-stimulated acid secretion upon intraperitoneal administration of 10 mg/kg dose to urethane anesthetized rats. Conditions: ip.
For assay [5], the system named is Rattus norvegicus. Put plainly: Percentage dose required to prevent lesion formation in gastric mucosa of unanesthetized rats upon intraperitoneal administration 30 min prior to an oral dose of HCl/ethanol.
Assay [6] concerns Rattus norvegicus. Put plainly: Dose required to prevent lesion formation in gastric mucosa of unanesthetized rats upon subcutaneous administration.

In the assay on Rattus norvegicus [1], `CO[C@@H]1C[C@H](O[C@@H]2C=C(C)C[C@@]3(O)[C@H](OC(C)=O)[C@H](O)C4=C(C(=O)c5ccc([C@H]6C[C@@H](O[C@H]7C[C@](C)(O)[C@H](O[C@H]8CC[C@H](NC(N)=O)[C@@H](C)O8)[C@@H](C)O7)[C@H](O)[C@@H](C)O6)c(O)c5C4=O)[C@@]23O)O[C@@H](C)[C@H]1O` [COMPOUND P371 A] displayed an inhibition in vivo at 1 mg/kg of 52.6%. The inhibition in vivo at 10 mg/kg was 83.6% in the assay on Rattus norvegicus [2] and 61% in the assay with Rattus norvegicus [4]. The inhibition in vivo at 3 mg/kg in the assay with Rattus norvegicus [3] came out at 81.6%. Moreover, the “% dose” value in the assay on Rattus norvegicus [5] amounted to 60%.
Consider `COc1ccc2c(c1)c(CC(=O)O)c(C)n2C(=O)c1ccc(Cl)cc1` [INDOMETHACIN], for which, in the assay on Rattus norvegicus [6], the Dose turned out to be 25 mg/kg. Besides, the inhibition in vivo at 1 mg/kg in the assay on Rattus norvegicus [1] was determined as 57%. For the same molecule, 10 mg/kg produced 72.8% inhibition in vivo with Rattus norvegicus [2]. For the same molecule, 3 mg/kg produced 64.9% inhibition in vivo in the assay with Rattus norvegicus [3].
